Here are results for 20 compounds from patent publication US11702422B2, “Imidazopyridazines as modulators of IL-17” (Janssen Pharmaceutica NV, priority 2020, dated 2023).

By IC50 is commonly meant the concentration needed to halve the response being measured. Higher therefore signals weaker potency.

Assay [1] concerns IL-17A-induced G-CSF production in human normal keratinocyte (NHK). In words: NHK Assay: IL-17A-induced G-CSF production in human normal keratinocytes. The assay is classed as cell-based. Particulars: 24 h, adult normal human keratinocytes, IL-17A 5 ng/mL, simple average if tested more than once. A digest of the protocol: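 Adult NHK, 3000-4000 cells/well; rhIL-17A + titrated cpd preincubated 1 h rt, then onto cells. Final: IL-17A 5 ng/mL, DMSO 0.2%, 5% FBS. 24 h, 37° C. G-CSF in supernatant by HTRF vs standard curve; IC50. Viability by CellTiter-Glo vs DMSO.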

Assay [2] has as its target IL-17A(FLAG-Tagged): IL-17RA(His-Tagged) (Homo sapiens, UniProt Q16552, K93Q). Kind of assay: IL-17A(FLAG-Tagged): IL-17RA(His-Tagged) Binding Disruption Eu-HTRF Assay. Particulars: IL-17A/IL-17RA binding disruption, simple average if tested more than once. A digest of the protocol:
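IC50 comes from a one-site competition fit of the HTRF 665/620 nm ratio. Compound dilutions (2-fold, 22 points) were held 1 h rt with FLAG-tagged IL-17A dimer, then His-tagged IL-17RA plus Eu-cryptate anti-FLAG and D2 anti-His antibodies were added for 2 h rt.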
On the technique in general: TR-FRET usually uses a lanthanide donor and a delayed reading to cut background.

UniProt Q16552, sequence (Q16552 with tags, fused parts or gaps K93Q): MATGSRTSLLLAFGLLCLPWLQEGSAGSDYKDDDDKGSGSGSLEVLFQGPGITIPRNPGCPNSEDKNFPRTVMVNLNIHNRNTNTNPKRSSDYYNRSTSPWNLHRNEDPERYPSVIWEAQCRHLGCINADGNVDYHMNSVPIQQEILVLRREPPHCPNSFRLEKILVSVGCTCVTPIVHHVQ

In the case of `O=C(CCC(F)(F)F)N[C@@H](c1cnn2cc([C@@H](NC(=O)c3cncc(OCC(F)F)c3)C3CCC(F)(F)CC3)nc2c1)C1CC1` [Example 183, N—((S)-(7-((R)-Cyclopropyl(4,4,4-trifluorobutanamido)methyl)imidazo[1,2-b]pyridazin-2-yl)(4,4-difluorocyclohexyl)methyl)-5-(2,2-difluoroethoxy)nicotinamide], the IC50 in assay [1] (Homo sapiens, Keratinocyte) is 520 nM; in assay [2], 69 nM.

As to `O=C(CCC(F)(F)F)N[C@@H](c1cnn2cc([C@@H](NC(=O)[C@H]3C[C@@H]3C(F)F)C3CCC(F)(F)CC3)nc2c1)C1CC1` (single isomer, unassigned) [Example 361], the IC50 in assay [1] (Homo sapiens, Keratinocyte) came to 1700 nM; in assay [2] it was 210 nM.

As to `O=C(CCC(F)(F)F)NC(c1cnn2cc([C@@H](NC(=O)c3cnn(CCC(F)(F)F)c3)C3CCC(F)(F)CC3)nc2c1)C1CC1` (single isomer, unassigned) [Example 6, N—((S)-(7-((R*)-Cyclopropyl(4,4,4-trifluorobutanamido)methyl)imidazo[1,2-b]pyridazin-2-yl)(4,4-difluorocyclohexyl)methyl)-1-(3,3,3-trifluoropropyl)-1H-pyrazole-4-carboxamide], the values for the 50% inhibitory concentration (IC50) in assay [1] and in assay [2] were 570 nM and 290 nM, respectively.

Take `Cc1nonc1C(=O)N[C@H](c1cn2ncc(C(C)NC(=O)CCC(F)(F)F)cc2n1)C1CCC(F)(F)CC1` (single isomer, unassigned) [Example 505, N—((S)-(4,4-Difluorocyclohexyl)(7-((R*)-1-(4,4,4-trifluorobutanamido)ethyl)imidazo[1,2-b]pyridazin-2-yl)methyl)-4-methyl-1,2,5-oxadiazole-3-carboxamide]: the figures for the IC50 in assay [1] and in assay [2] were more than 20000 nM and 5400 nM, respectively.

For `CC(C)n1nccc1C(=O)N[C@H](c1cn2ncc([C@H](NC(=O)C[C@H]3C[C@@H](F)C3)C3CC3)cc2n1)C1CCC(F)(F)CC1` (single isomer, unassigned) [Example 257], the IC50 was 120 nM in assay [1] (Homo sapiens, Keratinocyte) and 110 nM in assay [2].

For the compound `O=C(CCC(F)(F)F)N[C@@H](c1cnn2cc([C@@H](NC(=O)c3cn(CC4CC(F)(F)C4(F)F)nn3)C3CCC(F)(F)CC3)nc2c1)C1CC1` (stereo partly drawn) [Example 96, N—((S)-(7-((R)-Cyclopropyl(4,4,4-trifluorobutanamido)methyl)imidazo[1,2-b]pyridazin-2-yl)(4,4-difluorocyclohexyl)methyl)-1-((2,2,3,3-tetrafluorocyclobutyl)methyl)-1H-1,2,3-triazole-4-carboxamide], the IC50 stood at 2200 nM in assay [1] (Homo sapiens, Keratinocyte) and 370 nM in assay [2].

Turning to `Cc1nonc1C(=O)N[C@H](c1cn2ncc(C(CC#N)NC(=O)CC3CC(F)(F)C3)cc2n1)C1CCC(F)(F)CC1` (single isomer, unassigned) [Example 446, N—((S)-(7-((R*)-2-Cyano-1-(2-(3,3-difluorocyclobutyl)acetamido)ethyl)imidazo[1,2-b]pyridazin-2-yl)(4,4-difluorocyclohexyl)methyl)-4-methyl-1,2,5-oxadiazole-3-carboxamide], the IC50 was determined as 8800 nM in assay [1] and 710 nM in assay [2].

As for `O=C(CCC(F)(F)F)N[C@@H](c1cnn2cc([C@@H](NC(=O)c3ccccc3Cl)C3CCC(F)(F)CC3)nc2c1)C1CC1` [Example 42, 2-Chloro-N—((S)-(7-((R)-cyclopropyl(4,4,4-trifluorobutanamido)methyl)imidazo[1,2-b]pyridazin-2-yl)(4,4-difluorocyclohexyl)methyl)benzamide], the IC50 in assay [1] (Homo sapiens, Keratinocyte) worked out at 2200 nM; in assay [2], 410 nM.

In the case of `O=C(CCC(F)(F)F)N[C@@H](c1cnn2cc([C@@H](NC(=O)c3cccc(C4CC4(F)F)c3)C3CCC(F)(F)CC3)nc2c1)C1CC1` (stereo partly drawn) [Example 164, N—((S)-(7-((R)-Cyclopropyl(4,4,4-trifluorobutanamido)methyl)imidazo[1,2-b]pyridazin-2-yl)(4,4-difluorocyclohexyl)methyl)-3-(2,2-difluorocyclopropyl)benzamide], the concentration for half-maximal inhibition (IC50) in assay [1] (Homo sapiens, Keratinocyte) turned out to be 130 nM; in assay [2], 55 nM.

For `CC(C)n1nccc1C(=O)N[C@H](c1cn2ncc([C@H](NC(=O)C[C@@H](O)C(F)(F)F)C3CC3)cc2n1)C1CCC(F)(F)CC1` (relative stereo) [Example 130, N—((S)-(7-((R*)-Cyclopropyl((R*)-4,4,4-trifluoro-3-hydroxybutanamido)methyl)imidazo[1,2-b]pyridazin-2-yl)(4,4-difluorocyclohexyl)methyl)-1-isopropyl-1H-pyrazole-5-carboxamide], the IC50 in assay [1] (Homo sapiens, Keratinocyte) is 390 nM; in assay [2], 270 nM.

`CC(C)(C)OC[C@H](NC(=O)c1nonc1C1CC1)c1cn2ncc([C@H](NC(=O)CC3CC(F)(F)C3)C3CC3)cc2n1` [Example 319, N—((R)-2-(tert-Butoxy)-1-(7-((R)-cyclopropyl(2-(3,3-difluorocyclobutyl)acetamido)methyl)imidazo[1,2-b]pyridazin-2-yl)ethyl)-4-cyclopropyl-1,2,5-oxadiazole-3-carboxamide]: the IC50 turned out to be 330 nM in assay [1] (Homo sapiens, Keratinocyte) and 66 nM in assay [2].

For `O=C(CC1CC(F)(F)C1)NC(c1cnn2cc([C@@H](NC(=O)c3nonc3C3CC3)C3CCC(F)(F)CC3)nc2c1)C(F)F` (single isomer, unassigned) [Example 517, 4-Cyclopropyl-N—((S)-(7-((S*)-1-(2-(3,3-difluorocyclobutyl)acetamido)-2,2-difluoroethyl)imidazo[1,2-b]pyridazin-2-yl)(4,4-difluorocyclohexyl)methyl)-1,2,5-oxadiazole-3-carboxamide], the IC50 in assay [1] was 45 nM; in assay [2], 46 nM.

As for `O=C(CCC(F)(F)F)N[C@@H](c1cnn2cc([C@@H](NC(=O)c3conc3COC(F)F)C3CCC(F)(F)CC3)nc2c1)C1CC1` [Example 237, N—((S)-(7-((R)-Cyclopropyl(4,4,4-trifluorobutanamido)methyl)imidazo[1,2-b]pyridazin-2-yl)(4,4-difluorocyclohexyl)methyl)-3-((difluoromethoxy)methyl)isoxazole-4-carboxamide], the IC50 in assay [1] (Homo sapiens, Keratinocyte) amounted to 88 nM; in assay [2] it was 52 nM.

Turning to `CC(C)n1nccc1C(=O)N[C@H](c1cn2ncc([C@H](NC(=O)CC3CC(F)(F)C3)C3CC3)cc2n1)C1CCC(F)(F)CC1` [Example 119, N—((S)-(7-((R)-Cyclopropyl(2-(3,3-difluorocyclobutyl)acetamido)methyl)imidazo[1,2-b]pyridazin-2-yl)(4,4-difluorocyclohexyl)methyl)-1-isopropyl-1H-pyrazole-5-carboxamide], the IC50 worked out at 36 nM in assay [1] (Homo sapiens, Keratinocyte) and 96 nM in assay [2].

Consider `O=C(CCC(F)(F)F)N[C@@H](c1cnn2cc([C@@H](NC(=O)c3cncc(C4CC4)c3)C3CCC(F)(F)CC3)nc2c1)C1CC1` [Example 414, 5-Cyclopropyl-N—((S)-(7-((R)-cyclopropyl(4,4,4-trifluorobutanamido)methyl)imidazo[1,2-b]pyridazin-2-yl)(4,4-difluorocyclohexyl)methyl)nicotinamide], for which the IC50 turned out to be 730 nM in assay [1] (Homo sapiens, Keratinocyte) and 57 nM in assay [2].

For `CC(CC(=O)N[C@@H](c1cnn2cc([C@@H](NC(=O)c3nonc3C3CC3)C3CCC(F)(F)CC3)nc2c1)C1CC1)C(F)(F)F` (single isomer, unassigned) [Example 300, 4-Cyclopropyl-N—((S)-(7-((R)-cyclopropyl((R*)-4,4,4-trifluoro-3-methylbutanamido)methyl)imidazo[1,2-b]pyridazin-2-yl)(4,4-difluorocyclohexyl)methyl)-1,2,5-oxadiazole-3-carboxamide], the IC50 in assay [1] was determined as 320 nM; in assay [2], 110 nM.

For `O=C(CCC(F)(F)F)N[C@@H](c1cnn2cc([C@@H](NC(=O)[C@H]3C[C@H]3F)C3CCC(F)(F)CC3)nc2c1)C1CC1` [Example 97, (1R,2R)—N—((S)-(7-((R)-Cyclopropyl(4,4,4-trifluorobutanamido)methyl)imidazo[1,2-b]pyridazin-2-yl)(4,4-difluorocyclohexyl)methyl)-2-fluorocyclopropane-1-carboxamide], the IC50 in assay [1] (Homo sapiens, Keratinocyte) was more than 20000 nM; in assay [2], 5400 nM.

Consider `O=C(CCC(F)(F)F)N[C@@H](c1cnn2cc([C@@H](NC(=O)c3ncnn3CCF)C3CCC(F)(F)CC3)nc2c1)C1CC1` [Example 57, N—((S)-(7-((R)-Cyclopropyl(4,4,4-trifluorobutanamido)methyl)imidazo[1,2-b]pyridazin-2-yl)(4,4-difluorocyclohexyl)methyl)-1-(2-fluoroethyl)-1H-1,2,4-triazole-5-carboxamide], for which the IC50 in assay [1] (Homo sapiens, Keratinocyte) was determined as 770 nM; in assay [2], 220 nM.

For `CC(C)(O)c1nonc1C(=O)N[C@H](c1cn2ncc([C@H](NC(=O)CC3CC(F)(F)C3)C3CC3)cc2n1)C1CCC(F)(F)CC1` [Example 410, N—((S)-(7-((R)-Cyclopropyl(2-(3,3-difluorocyclobutyl)acetamido)methyl)imidazo[1,2-b]pyridazin-2-yl)(4,4-difluorocyclohexyl)methyl)-4-(2-hydroxypropan-2-yl)-1,2,5-oxadiazole-3-carboxamide], the IC50 worked out at 230 nM in assay [1] (Homo sapiens, Keratinocyte) and 120 nM in assay [2].

For the compound `CC(C)n1nccc1C(=O)N[C@H](c1cn2ncc([C@H](NC(=O)C[C@H](O)C(F)(F)F)C3CC3)cc2n1)C1CCC(F)(F)CC1` (relative stereo) [Example 131, N—((S)-(7-((R*)-Cyclopropyl((S*)-4,4,4-trifluoro-3-hydroxybutanamido)methyl)imidazo[1,2-b]pyridazin-2-yl)(4,4-difluorocyclohexyl)methyl)-1-isopropyl-1H-pyrazole-5-carboxamide], the IC50 in assay [1] (Homo sapiens, Keratinocyte) is 100 nM; in assay [2], 87 nM.
